Measured values as given in ChEMBL document CHEMBL4665751, “Discovery of Clinical Candidate (5-(3-(4-Chlorophenoxy)prop-1-yn-1-yl)-3-hydroxypicolinoyl)glycine, an Orally Bioavailable Prolyl Hydroxylase Inhibitor for the Treatment of Anemia” (J Med Chem, 2020).
The source made the active and inactive calls. The calls are words filed in the database; no cut-off is given here.

How the values were obtained:
Egl nine homolog 1 = Egl nine homolog 1 (Homo sapiens, UniProt Q9GZT9); assay: Inhibition of FITC-HIF1alpha (556 to 574 residues) binding to PHD2 (181 to 426 residues) (unknown origin) by fluorescence polarization assay
[1] = In vivo inhibition of PHD2 in C57BL/6 mouse assessed as increase in EPO plasma level by measuring EPO level at 15 mg/kg, iv measured after 4 hrs by ELISA; assay type: functional
Mus musculus [2] = assay: In vivo inhibition of PHD2 in po dosed C57BL/6 mouse assessed as upregulation of EPO plasma level administered 4 times for 3 days by ELISA; assay type: functional, organism-based; conditions: dose mg/kg 5-50, time 3.0 day
Mus musculus [3] = assay: Induction of erythropoiesis in po dosed C57BL/6 mouse assessed as increase in red blood cell count administered thrice for 3 days measured 4 hrs post last dose; assay type: functional, organism-based; conditions: dose mg/kg 5-50, time 72.0 hrs
Mus musculus [4] = assay: In vivo inhibition of PHD2 in C57BL/6 mouse assessed as upregulation of EPO plasma level by measuring EPO level at 15 mg/kg, po measured after 4 hrs by ELISA; assay type: functional, organism-based
Mus musculus [5] = assay: Antianemic activity in cisplatin-induced C57BL/6 mouse anemia model assessed as increase in haemoglobin level administered orally every other day for 1 month; assay type: functional, organism-based; conditions: dose mg/kg 10-25, time 1.0 months
Mus musculus [6] = assay: Antianemic activity in cisplatin-induced C57BL/6 mouse anemia model assessed as improvement in anemia at 10 mg/kg, po administered every other day for 1 month; assay type: functional; conditions: time 1 months, 730 h
Mus musculus [7] = assay: Antianemic activity in cisplatin-induced C57BL/6 mouse anemia model assessed as improvement in anemia at 25 mg/kg, po administered every other day for 1 month; assay type: functional; conditions: time 1 months, 730 h

Egl nine homolog 1, sequence (Q9GZT9 whole entry, the tested form may be a part): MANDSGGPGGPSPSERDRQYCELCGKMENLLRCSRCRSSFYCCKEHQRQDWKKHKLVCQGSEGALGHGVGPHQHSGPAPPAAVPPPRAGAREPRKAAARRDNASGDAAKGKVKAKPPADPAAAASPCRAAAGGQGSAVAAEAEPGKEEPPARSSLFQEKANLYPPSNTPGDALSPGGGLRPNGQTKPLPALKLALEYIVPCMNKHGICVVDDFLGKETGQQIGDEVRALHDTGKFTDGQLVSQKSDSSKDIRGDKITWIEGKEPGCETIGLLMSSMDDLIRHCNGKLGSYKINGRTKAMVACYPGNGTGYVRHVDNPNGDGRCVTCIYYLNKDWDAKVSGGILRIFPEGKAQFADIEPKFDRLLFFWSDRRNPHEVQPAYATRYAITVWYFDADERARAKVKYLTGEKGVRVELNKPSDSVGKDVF

IC50 (Egl nine homolog 1) [nM]	Compound	also measured
408	O=C(O)CNC(=O)c1ncc(C#CCOCCc2ccc(Cl)cc2)cc1O	
1070	O=C(O)CNC(=O)c1ncc(C#CCOc2ccccc2C(F)(F)F)cc1O	
263	N#Cc1ccc(OCC#Cc2cnc(C(=O)NCC(=O)O)c(O)c2)cc1	
	COc1ccc(OCC#Cc2cnc(C(=O)NCC(=O)O)c(O)c2)cc1	Activity [1]: >1000 pg/mL
428	COc1cccc(OCC#Cc2cnc(C(=O)NCC(=O)O)c(O)c2)c1	
125	Cc1cccc(OCC#Cc2cnc(C(=O)NCC(=O)O)c(O)c2)c1	Activity [1]: >1000 pg/mL
454	CN(CC#Cc1cnc(C(=O)NCC(=O)O)c(O)c1)c1ccccc1	
	O=C(O)CNC(=O)c1ncc(C#CCOc2ccccc2Cl)cc1O	Activity [1]: >1000 pg/mL
218	COc1ccccc1OCC#Cc1cnc(C(=O)NCC(=O)O)c(O)c1	
256	O=C(O)CNC(=O)c1ncc(C#CCOc2cccc(F)c2)cc1O	
84.3	O=C(O)CNC(=O)c1ncc(C#CCOCc2ccc(Cl)cc2)cc1O	
877	O=C(O)CNC(=O)c1ncc(C#CCOc2cccc(C(F)(F)F)c2)cc1O	
587	O=C(O)CNC(=O)c1ncc(C#CCOc2cccc(Cl)c2)cc1O	
346	O=C(O)CNC(=O)c1ncc(C#CCOc2cccc3ccccc23)cc1O	
825	O=C(O)CNC(=O)c1ncc(C#CCOc2ccc(-c3ccccc3)cc2)cc1O	
	Cc1nc(C(=O)NCC(=O)O)c(O)c2ccc(Oc3ccccc3)cc12 [ROXADUSTAT]	inhibition (Mus musculus [2]): Dose-dependent effect; Activity (Mus musculus [3]): Dose-dependent effect; inhibition (Mus musculus [4]): Active; Activity (Mus musculus [5]): Active; Activity (Mus musculus [6]): 86.4%; Activity (Mus musculus [7]): 115.2%
